Measurements published in patent US11583542B2, “Compositions of bile acids and phenylbutyrate compounds” (Amylyx Pharmaceuticals Inc., priority 2019, dated 2023).

How the values were obtained:
Format in all cases: physicochemical
[1] = Bulk density, tapped density, Hausner ratio and Carr's index; details: powder; calculated from bulk and tapped density
Protocol: Bulk density was calculated for each API and blend by gently pouring powder into a 25 mL graduated cylinder. Tapped density was calculated using a tapped volumeter to compact each powder using 100-tap increments until volume change was <5%. Hausner ratio and Carr's index were then calculated using bulk density and tapped density. Formulation C was selected based on flow characteristics. Carr's index, in addition to being a measure of compressibility, may also be used to determine the flow properties of a material. […] Acceptable flow property (as determined by the packaging equipment used) was a minimum of a Carr's index of under 25, with a Carr's index of below 20 being preferable.
Each API was blended and roller compacted with excipients separately to determine if the proximity of the dual APIs in the blend or granules was responsible for agglomeration. The resulting granules were then recombined and blended before filling test sachets. Bulk and tapped densities of each blend were measured prior to roller compaction. For this experiment, all silica were used at 1% W/W. Aerosil 200 was used as a negative control while Syloid 244FP and Syloid 63FP were used to remove moisture from the APIs to determine if APIs would agglomerate with reduced local levels of water. […]

[2] = Dynamic Vapor Sorption (DVS) testing
Text: Samples of NaPB, TURSO, and modified formulation C1 blend were subjected to DVS testing to determine the magnitude of weight gain due to humidity.

[3] = Forced degradation studies (thermal, thermal-humidity, light, oxidation, acid, base); details: for degradation of API: API alone
Text: Each API and the final formulation (referred to as “AMX powder in sachet”) containing both APIs were also subjected to forced degradation studies. The study included stressing samples of PB (sodium phenylbutyrate) API, TURSO API, placebo, and AMX Powder in Sachet under thermal, thermal-humidity, light, oxidation, acid, or base conditions (Table 49).

[4] = Loss on Drying (LOD) testing; details: excipients
Protocol: After storage in sealed bottles for about one week, slight agglomeration of blends was observed.
LOD testing was performed on recovered agglomerated blend (PD2016-015-33B) after ˜2 hours of drying at 50° C. to determine the degree of moisture uptake. Results were compared against a non-agglomerated blend that had been stored in a sealed bottle (PD2016-015-29A).

[5] = Base 3 Days (1.0N NaOH, 50° C.)
[6] = Base 7 Days (1.0N NaOH, 50° C.)
[7] = Thermal-Humidity (85° C. + 1.0 mL water, 10 days)

## O=C(O)CCCc1ccccc1 [NaPB, sodium phenylbutyrate]
[1]
  Carr's index: 39.2
[2]; above 45% RH
  DVS change in mass: massive fluctuations in mass
[2]; moisture uptake
  Fluctuations in mass: up to 50%
[3]; any of the forced degradation conditions studied
  degradation of API: did not degrade
[3]; Acid 3 Days (1.0N HCl, 50° C.)
  % PB / % (PB) Potency: 99.1%
  % PB remaining: 99.9%
  % RMBD (Relative Mass Balance Deficit), PB: 99.0%
  % Total RS / % Total PB Impurity: 1.18%
  Mass Balance / PB Sum: 100.28
[3]; Acid 7 Days (1.0N HCl, 50° C.)
  % PB / % (PB) Potency: 99.7%
  % PB remaining: 100.5%
  % RMBD (Relative Mass Balance Deficit), PB: 99.6%
  % Total RS / % Total PB Impurity: 1.14%
  Mass Balance / PB Sum: 100.84
[3]; [5]
  % PB remaining: 99.7%
  % RMBD (Relative Mass Balance Deficit), PB: 98.8%
  % Total RS / % Total PB Impurity: 1.11%
  Mass Balance / PB Sum: 100.01
[3]; [6]
  % PB / % (PB) Potency: 99.8%
  % PB remaining: 100.6%
  % RMBD (Relative Mass Balance Deficit), PB: 99.6%
  % Total RS / % Total PB Impurity: 1.10%
  Mass Balance / PB Sum: 100.90
[3]; Control
  % PB / % (PB) Potency: 99.2%
  % Total RS / % Total PB Impurity: 2.07%
  Mass Balance / PB Sum: 101.27
[3]; Light (1 × ICH condition)
  % PB / % (PB) Potency: 98.3%
  % PB remaining: 99.3%
  % RMBD (Relative Mass Balance Deficit), PB: 99.1%
  % Total RS / % Total PB Impurity: 0.74%
  Mass Balance / PB Sum: 99.04
[3]; Light Control
  % PB / % (PB) Potency: 99.0%
  % Total RS / % Total PB Impurity: 0.96%
  Mass Balance / PB Sum: 99.96
[3]; Oxidation (3% H2O2)
  % PB remaining: 99.4%
  % RMBD (Relative Mass Balance Deficit), PB: 100.5%
  % Total RS / % Total PB Impurity: 3.13%
  Mass Balance / PB Sum: 101.73
[3]; Thermal (85° C., 10 days)
  % PB / % (PB) Potency: 98.9%
  % PB remaining: 99.7%
  % RMBD (Relative Mass Balance Deficit), PB: 101.5%
  % Total RS / % Total PB Impurity: 3.93%
  Mass Balance / PB Sum: 102.83
[3]; [7]
  % PB / % (PB) Potency: 99.3%
  % PB remaining: 100.1%
  % RMBD (Relative Mass Balance Deficit), PB: 99.2%
  % Total RS / % Total PB Impurity: 1.16%
  Mass Balance / PB Sum: 100.48

## C[C@H](CCC(=O)NCCS(=O)(=O)O)[C@H]1CC[C@H]2[C@@H]3[C@@H](O)C[C@@H]4C[C@H](O)CC[C@]4(C)[C@H]3CC[C@]12C [TUDCA API]
[3]; Acid 3 Days (1.0N HCl, 50° C.)
  % RMBD, TUDCA: 99.8%
  % TUDCA / % (TUDCA) Potency: 100.0%
  % TUDCA remaining: 99.8%
  % Total RS / % Total TUDCA Impurity: 0.23%
  Sum / TUDCA Sum: 100.23
[3]; Acid 7 Days (1.0N HCl, 50° C.)
  % RMBD, TUDCA: 97.0%
  % TUDCA / % (TUDCA) Potency: 97.2%
  % TUDCA remaining: 97.0%
  % Total RS / % Total TUDCA Impurity: 0.20%
  Sum / TUDCA Sum: 97.40
[3]; Acid: 10 mL of 1.0N HCl per sample for 3 days at 50° C.
  % Degradation Observed / Conclusion: No significant
[3]; [5]
  % RMBD, TUDCA: 94.9%
  % TUDCA / % (TUDCA) Potency: 95.1%
  % TUDCA remaining: 94.9%
  % Total RS / % Total TUDCA Impurity: 0.22%
  Sum / TUDCA Sum: 95.32
[3]; [6]
  % RMBD, TUDCA: 82.6%
  % TUDCA / % (TUDCA) Potency: 82.8%
  % TUDCA remaining: 82.6%
  % Total RS / % Total TUDCA Impurity: 0.18%
  Sum / TUDCA Sum: 82.98
[3]; Control
  % TUDCA / % (TUDCA) Potency: 100.2%
  % Total RS / % Total TUDCA Impurity: 0.22%
  Sum / TUDCA Sum: 100.42.
[3]; Light (1 × ICH condition)
  % RMBD, TUDCA: 103.2%
  % TUDCA / % (TUDCA) Potency: 99.5%
  % TUDCA remaining: 103.2%
  % Total RS / % Total TUDCA Impurity: 0.24%
  Sum / TUDCA Sum: 99.74
[3]; Light Control
  % TUDCA / % (TUDCA) Potency: 96.4%
  % Total RS / % Total TUDCA Impurity: 0.22%
  Sum / TUDCA Sum: 96.62
[3]; Light: 1 × ICH condition (White light NLT 1.2 million lux hours and UV light NLT 200 W hours/m^2)
  % Degradation Observed / Conclusion: No significant
[3]; Oxidation (3% H2O2)
  % RMBD, TUDCA: 98.8%
  % TUDCA / % (TUDCA) Potency: 97.1%
  % TUDCA remaining: 93.9%
  % Total RS / % Total TUDCA Impurity: 1.36%
  Sum / TUDCA Sum: 98.46
[3]; Oxidation: 10 mL of 3% H2O2 per sample
  % Degradation Observed / Conclusion: ~3%
[3]; Thermal (85° C., 10 days)
  % RMBD, TUDCA: 100.5%
  % TUDCA / % (TUDCA) Potency: 100.6%
  % TUDCA remaining: 100.4%
  % Total RS / % Total TUDCA Impurity: 0.28%
  Sum / TUDCA Sum: 100.88
[3]; [7]
  % RMBD, TUDCA: 0.0%
  % TUDCA remaining: 0%
  Sum / TUDCA Sum: 0.00
[3]; Thermal-Humidity: 85° C. + 1.0 mL water per sample for 10 days
  % Degradation Observed / Conclusion: Full degradation/
[3]; Thermal: 85° C. for 10 days
  % Degradation Observed / Conclusion: No significant

## C[C@H](CCC(=O)NCCS(=O)(=O)O)[C@H]1CC[C@H]2[C@@H]3[C@@H](O)C[C@@H]4C[C@H](O)CC[C@]4(C)[C@H]3CC[C@]12C [TURSO, tauroursodeoxycholic acid]
[1]
  Carr's index: 24.2
[3]; Thermal-Humidity condition
  degradation of API: no TURSO peak was detected
[3]; acidic condition, by Day 7
  degradation of API: degraded slightly
[3]; base condition, by Day 3
  degradation of API: degraded slightly
[3]; base condition, by Day 7
  degradation of API: ~17%
[3]; light condition
  degradation of API: did not degrade
[3]; oxidation condition, by Day 3
  degradation of API: degraded slightly
[3]; thermal condition
  degradation of API: did not degrade
[3]; Acid: 10 mL of 1.0N HCl per sample for 3 days at 50° C., listed as TURSO API
  % Degradation Observed / Conclusion: None
[3]; Acid: 10 mL of 1.0N HCl per sample for 7 days at 50° C.
  % Degradation Observed / Conclusion: ~3%
[3]; Base: 10 mL of 1.0N NaOH per sample for 3 days at 50° C.
  % Degradation Observed / Conclusion: ~5%
[3]; Base: 10 mL of 1.0N NaOH per sample for 7 days at 50° C.
  % Degradation Observed / Conclusion: ~17%
[3]; Light: 1 × ICH condition (White light NLT 1.2 million lux hours and UV light NLT 200 W hours/m^2), listed as TURSO API
  % Degradation Observed / Conclusion: None
[3]; Oxidation: 10 mL of 3% H2O2 per sample, listed as TURSO API
  % Degradation Observed / Conclusion: 3%
[3]; Thermal-Humidity: 85° C. + 1.0 mL water per sample for 10 days, listed as TURSO API
  % Degradation Observed / Conclusion: 100%
[3]; Thermal: 85° C. for 10 days, listed as TURSO API
  % Degradation Observed / Conclusion: None

## OC[C@@H](O)[C@@H](O)[C@H](O)[C@@H](O)CO [sorbitol]
[4]
  water uptake by loss-on-drying (LOD) testing: neither exhibited massive water uptake
